We go through 38 compounds from ChEMBL document CHEMBL4257451, “Synergism of fused bicyclic 2-aminothiazolyl compounds with polymyxin B against Klebsiella pneumoniae” (Medchemcomm, 2017).

The subject of data set [1] is Klebsiella pneumoniae. Description: Synergistic antibacterial activity against Klebsiella pneumoniae SIPI-KPN-1712 assessed as polymixin B MIC at 4 ug/ml by broth microdilution method (reference value: 32 ug/ml). Format: functional.
The subject of data set [2] is Klebsiella pneumoniae. Description: Growth inhibition of Klebsiella pneumoniae SIPI-KPN-1712 by broth microdilution method. Type of data set: organism-based. The settings on record: in vitro. A general note: Broth dilution looks for growth in wells or tubes with falling amounts of substance.
The test system of data set [3] is Klebsiella pneumoniae. Description: Synergistic antibacterial activity against Klebsiella pneumoniae SIPI-KPN-1712 assessed as fractional Inhibitory concentration index in presence of polymixin B at 2 ug/ml by broth microdilution method. Format: functional.

As for `CCCC(CCC)OC1CCCc2nc(Nc3ccc(Cl)cc3)sc21` (centres undefined), the MIC is 4 µg/mL in data set [1] and above 128 µg/mL in data set [2]. Also, the “fractional inhibitory concentration index (FICI)” value in data set [3] was determined as 0.16.

In the case of `OC1CCCc2nc(Nc3ccc(C(F)(F)F)cc3)sc21` (centres undefined), the MIC in data set [1] was 16 µg/mL; in data set [2] it was above 128 µg/mL. The “fractional inhibitory concentration index (FICI)” value in data set [3] came out at 0.53.

As for `CCOC1CCCc2nc(Nc3ncccn3)sc21` (centres undefined), the MIC in data set [1] was 16 µg/mL; in data set [2] it was above 128 µg/mL. For the same compound, the “fractional inhibitory concentration index (FICI)” value in data set [3] is reported as 0.53.

In the case of `Cc1ccc(Nc2nc3c(s2)C(OC(C)C)CCC3)cc1` (centres undefined), the values for the MIC in data set [1] and in data set [2] were 16 µg/mL and above 128 µg/mL, respectively. Besides, the “fractional inhibitory concentration index (FICI)” value in data set [3] came out at 0.53.

As to `COC1CCCc2nc(Nc3ccc(C(F)(F)F)cc3)sc21` (centres undefined), the MIC in data set [1] is 8 µg/mL; in data set [2] it was above 128 µg/mL. Also, in data set [3], the “fractional inhibitory concentration index (FICI)” value is 0.28.

As to `O=C(OC1CCCc2nc(Nc3ccccc3)sc21)n1ccnc1` (centres undefined), the results for the MIC in data set [1] and in data set [2] were 16 µg/mL and above 128 µg/mL, respectively. Further, in data set [3], the “fractional inhibitory concentration index (FICI)” value is reported as 0.53.

Take `CCOC1CCCc2nc(Nc3ccc(Cl)cc3)sc21` (centres undefined): the values for the MIC in data set [1] and in data set [2] were 1 µg/mL and above 128 µg/mL, respectively. In addition, in data set [3], the “fractional inhibitory concentration index (FICI)” value turned out to be 0.06.

Turning to `COC1CCCc2nc(Nc3c(Cl)cccc3Cl)sc21` (centres undefined), the MIC was 1 µg/mL in data set [1] and above 128 µg/mL in data set [2]. In data set [3], the “fractional inhibitory concentration index (FICI)” value came out at 0.06.

Turning to `CCCOC1CCCc2nc(Nc3ccc(F)cc3)sc21` (centres undefined), the MIC in data set [1] is 16 µg/mL; in data set [2], above 128 µg/mL. For the same compound, the “fractional inhibitory concentration index (FICI)” value in data set [3] was determined as 0.53.

Turning to `COc1cc(Nc2nc3c(s2)C(OC)CCC3)cc(OC)c1OC` (centres undefined), the MIC in data set [1] is 16 µg/mL; in data set [2] it was above 128 µg/mL. Further, the “fractional inhibitory concentration index (FICI)” value in data set [3] is listed as 0.53.

As for `COC1CCCc2nc(Nc3ccc4ccccc4n3)sc21` (centres undefined), the MIC was 32 µg/mL in data set [1] and above 128 µg/mL in data set [2]. Besides, in data set [3], the “fractional inhibitory concentration index (FICI)” value amounted to 1.03.

Regarding `Clc1ccc(Nc2nc3c(s2)C(OC2CCCC2)CCC3)cc1` (centres undefined), the MIC in data set [1] is 8 µg/mL; in data set [2], above 128 µg/mL. Besides, the “fractional inhibitory concentration index (FICI)” value in data set [3] was found to be 0.28.

As for `O=C(OC1CCCc2nc(Nc3ccc(F)cc3)sc21)n1ccnc1` (centres undefined), the MIC was 32 µg/mL in data set [1] and above 128 µg/mL in data set [2]. For the same compound, the “fractional inhibitory concentration index (FICI)” value in data set [3] is listed as 1.03.

Consider `COC1CCCc2nc(Nc3ccc(C#N)cc3)sc21` (centres undefined), for which the MIC in data set [1] was 16 µg/mL; in data set [2], above 128 µg/mL. Further, the “fractional inhibitory concentration index (FICI)” value in data set [3] is listed as 0.53.

As for `COc1ccc(Nc2nc3c(s2)C(OC)CCC3)cc1` (centres undefined), the MIC in data set [1] is 16 µg/mL; in data set [2], above 128 µg/mL. Moreover, the “fractional inhibitory concentration index (FICI)” value in data set [3] turned out to be 0.53.

Turning to `CCOC1CCCc2nc(Nc3ccc(Cl)cn3)sc21` (centres undefined), the MIC in data set [1] is 16 µg/mL; in data set [2], above 128 µg/mL. Moreover, in data set [3], the “fractional inhibitory concentration index (FICI)” value worked out at 0.53.

With `COC1CCCc2nc(Nc3ccnc(Cl)c3)sc21` (centres undefined), the MIC is 4 µg/mL in data set [1] and above 128 µg/mL in data set [2]. Besides, in data set [3], the “fractional inhibitory concentration index (FICI)” value came to 0.16.

As for `COC1CCCc2nc(Nc3ccc(C#N)c(C(F)(F)F)c3)sc21` (centres undefined), the figures for the MIC in data set [1] and in data set [2] were 16 µg/mL and above 128 µg/mL, respectively. The “fractional inhibitory concentration index (FICI)” value in data set [3] worked out at 0.53.

In the case of `COC1CCCc2nc(Nc3c(F)cccc3F)sc21` (centres undefined), the values for the MIC in data set [1] and in data set [2] were 32 µg/mL and above 128 µg/mL, respectively. For the same compound, the “fractional inhibitory concentration index (FICI)” value in data set [3] was determined as 1.03.

Regarding `Clc1ccc(Nc2nc3ccc(Cl)cc3s2)cc1`, the values for the MIC in data set [1] and in data set [2] were 32 µg/mL and above 128 µg/mL, respectively. Moreover, the “fractional inhibitory concentration index (FICI)” value in data set [3] is 1.03.

As to `COC1CCCc2nc(Nc3ccc(Cl)cc3Cl)sc21` (centres undefined), the values for the MIC in data set [1] and in data set [2] were 8 µg/mL and above 128 µg/mL, respectively. For the same compound, the “fractional inhibitory concentration index (FICI)” value in data set [3] is reported as 0.28.

`COC1CCCc2nc(Nc3ccc4ccccc4c3)sc21` (centres undefined): the MIC in data set [1] was 32 µg/mL; in data set [2], above 128 µg/mL. In addition, the “fractional inhibitory concentration index (FICI)” value in data set [3] is on record as 1.03.

Consider `CCCCOC1CCCc2nc(Nc3ccc(C)cc3)sc21` (centres undefined), for which the MIC in data set [1] was 32 µg/mL; in data set [2] it was above 128 µg/mL. Further, the “fractional inhibitory concentration index (FICI)” value in data set [3] was found to be 1.03.

On to `COC1CCCc2nc(Nc3ccc(Cl)cc3)sc21` (centres undefined), for which the MIC in data set [1] is 1 µg/mL; in data set [2], above 128 µg/mL. In addition, the “fractional inhibitory concentration index (FICI)” value in data set [3] was found to be 0.06.

As for `CCOC1CCCc2nc(Nc3ccc(C)cc3)sc21` (centres undefined), the MIC was 4 µg/mL in data set [1] and above 128 µg/mL in data set [2]. In data set [3], the “fractional inhibitory concentration index (FICI)” value amounted to 0.16.

With `COC1CCCc2nc(Nc3ccccc3C(F)(F)F)sc21` (centres undefined), the figures for the MIC in data set [1] and in data set [2] were 16 µg/mL and above 128 µg/mL, respectively. For the same compound, in data set [3], the “fractional inhibitory concentration index (FICI)” value was found to be 0.53.

On to `COC1CCCc2nc(Nc3cccc(C)c3C)sc21` (centres undefined), for which the MIC was 32 µg/mL in data set [1] and above 128 µg/mL in data set [2]. Moreover, in data set [3], the “fractional inhibitory concentration index (FICI)” value came out at 1.03.

`COC1CCCc2nc(Nc3cccc(Cl)c3)sc21` (centres undefined): the MIC in data set [1] is 8 µg/mL; in data set [2], above 128 µg/mL. Besides, the “fractional inhibitory concentration index (FICI)” value in data set [3] was determined as 0.28.

For `CC(C)OC1CCCc2nc(Nc3ccc(Cl)cc3)sc21` (centres undefined), the figures for the MIC in data set [1] and in data set [2] were 1 µg/mL and above 128 µg/mL, respectively. For the same compound, in data set [3], the “fractional inhibitory concentration index (FICI)” value is given as 0.06.

`COC1CCCc2nc(Nc3nccs3)sc21` (centres undefined): the MIC in data set [1] was 32 µg/mL; in data set [2] it was above 128 µg/mL. The “fractional inhibitory concentration index (FICI)” value in data set [3] is on record as 1.03.

Take `COC1CCCc2nc(Nc3ccc(Cl)cn3)sc21` (centres undefined): the MIC in data set [1] is 16 µg/mL; in data set [2] it was above 128 µg/mL. Also, in data set [3], the “fractional inhibitory concentration index (FICI)” value amounted to 0.53.

With `COC1CCCc2nc(Nc3cccc(F)c3)sc21` (centres undefined), the MIC was 32 µg/mL in data set [1] and above 128 µg/mL in data set [2]. For the same compound, the “fractional inhibitory concentration index (FICI)” value in data set [3] amounted to 1.03.

In the case of `CCOC1CCCc2nc(Nc3ccc(F)cc3)sc21` (centres undefined), the values for the MIC in data set [1] and in data set [2] were 16 µg/mL and above 128 µg/mL, respectively. In data set [3], the “fractional inhibitory concentration index (FICI)” value was found to be 0.53.

Take `CCCCOC1CCCc2nc(Nc3ccc(Cl)cc3)sc21` (centres undefined): the values for the MIC in data set [1] and in data set [2] were 16 µg/mL and above 128 µg/mL, respectively. In addition, the “fractional inhibitory concentration index (FICI)” value in data set [3] turned out to be 0.53.

`COC1CCCc2nc(Nc3ccc(N(C)C)cc3)sc21` (centres undefined): the MIC in data set [1] was 16 µg/mL; in data set [2], above 128 µg/mL. For the same compound, the “fractional inhibitory concentration index (FICI)” value in data set [3] amounted to 0.53.

For `COC1CCCc2nc(Nc3ncccn3)sc21` (centres undefined), the MIC was 16 µg/mL in data set [1] and above 128 µg/mL in data set [2]. Besides, in data set [3], the “fractional inhibitory concentration index (FICI)” value was 0.53.

Consider `CCCOC1CCCc2nc(Nc3ccc(C)cc3)sc21` (centres undefined), for which the MIC is 16 µg/mL in data set [1] and above 128 µg/mL in data set [2]. Also, the “fractional inhibitory concentration index (FICI)” value in data set [3] came out at 0.53.

For `COC1CCCc2nc(Nc3ccc(Oc4ccccc4C)cc3)sc21` (centres undefined), the MIC in data set [1] was 16 µg/mL; in data set [2], above 128 µg/mL. Further, the “fractional inhibitory concentration index (FICI)” value in data set [3] came to 0.53.
